Measurements from patent US9546201B2, “MUC-1 cytoplasmic domain peptides as inhibitors of cancer” (DANA-FARBER CANCER INSTITUTE, INC., priority 2008, dated 2017).
Entries after “also recorded” stand apart in the source; their conditions may differ. Where a SMILES comes first, the peptide text is derived from it. [ ]: non-standard residue; d: D form.

Experiments:
[1] = system: multiple carcinoma cell lines; test: Inventors' recent studies of MUC1 C-terminal peptides on carcinoma cell lines; assay type: cell-based; settings: L-amino acid peptide
From the text: However, these MUC1-C-terminal peptides consists of L-amino acids. […] Consequently, they have generated an all-dextro form of the above described shorter MUC1 C-terminal peptide, in which the L-amino acids were changed to D-amino acids (GO-203). Moreover, to determine the minimum amino acid residues from the MUC1-C-terminal region that are required to retain the cell killing activity, they have also generated many different versions of GO-203 as described in FIG. 8.

MUC1-negative 293 cells = test: Viable cell number by trypan blue exclusion, 293 cells; assay type: cell-based; settings: 5 μM
Method: (§1) FIGS. 4A-E. Selectivity of MUC1/CQC for MUC1 expressing breast cancer cells. (FIG. 4A) ZR-75-1 cells were stably infected with an empty lentivirus (vector) or one expressing a MUC1 siRNA. Lysates for the infected cells were immunoblotted with the indicated antibodies. (FIG. 4B) ZR-75-1/vector cells were left untreated (diamonds), and ZR-75-1/vector (squares) and ZR-75-1/MUC1siRNA (triangles) cells were treated with 5 μM MUC1/CQC peptide for the indicated times. Viable cell number was determined by trypan blue exclusion. (FIG. 4C) 293 cells were left untreated (diamonds), and treated with 5 μM MUC1/CQC (squares) or MUC1/AQA (triangles) for the indicated times. Viable cell number was determined by trypan blue exclusion. (FIG. 4D) MCF-10A cells were left untreated (left panel), and treated with 5 μM MUC1/CQC (middle panel) or MUC1/AQA (right panel). At 3 d, cells were analyzed for cell cycle distribution. […] Viable cell number was determined by trypan blue exclusion.
(§2) Human breast cancer ZR-75-1, ZR-75-1/vector, ZR-75-1/MUC1siRNA (Ren et al., 2004) cell lines were grown in RPMI1640 medium supplemented with 10% heat-inactivated fetal bovine serum (HI-FBS), 100 U/ml penicillin, and 100 μg/ml streptomycin (Invitrogen) in a humidified incubator at 37° C. and 5% CO2. […] Viability was determined by trypan blue exclusion. […]

MCF-7 cells = test: Cell cycle distribution and necrosis by flow cytometry, MCF-7; assay type: cell-based, human; settings: MCF-7, 5 μM, 3 and 4 d
Method: FIGS. 3A-D. MUC1/CQC peptide induces S phase arrest and necrosis. ZR-75-1 (FIGS. 3A-B) and MCF-7 (FIGS. 3C-D) cells were treated with 5 μM MUC1/CQC or MUC1/AQA for 3 and 4 d. Cells were fixed and analyzed for cell cycle distribution by flow cytometry (FIGS. 3A and 3C). The percentage of cells in G1, S and G2/M phases is included in the panels. Cells were also stained with propidium iodide and analyzed by flow cytometry for necrosis (FIGS. 3B and 3D). The percentage of necrotic cells is included in the panels.
Cells were harvested, washed with PBS, fixed with 80% ethanol, and incubated in PBS containing 40 μg/ml RNAse and 40 μg/ml propidium iodide for 30 min at 37° C. Cell cycle distribution was determined by flow cytometry. Sub-G1 DNA content was assessed by staining ethanol-fixed and citrate buffer-permeabilized cells with propidium iodide and monitoring by flow cytometry as described (Yin et al., 2007). For assessment of necrosis, cells were incubated with 1 μg/ml propidium iodide/PBS for 5 min at room temperature and then monitored by flow cytometry as described (Yin et al., 2007).
To determine whether the MUC1/CQC peptide affects growth, ZR-75-1 cells were treated with 5 μM MUC1/CQC for 72 h and monitored for cell cycle distribution. […] These findings indicate that the MUC1/CQC peptide inhibits growth and induces necrosis of human breast cancer cells.

[2] = system: MCF-10A non-transformed mammary epithelial cell line; test: Cell cycle distribution and viable cell number, MCF-10A; assay type: cell-based, human; settings: 5 μM
Method: as §1, §2

CC[C@H](C)[C@H](NC(=O)[C@H](CC(=O)O)NC(=O)[C@H](CC(C)C)NC(=O)[C@H](CCC(N)=O)NC(=O)CNC(=O)[C@H](Cc1ccc(O)cc1)NC(=O)[C@H](CC(N)=O)NC(=O)[C@H](CCCCN)NC(=O)[C@H](CCCNC(=N)N)NC(=O)[C@H](CCCNC(=N)N)NC(=O)[C@H](CS)NC(=O)[C@H](CCC(N)=O)NC(=O)[C@H](CS)NC(=O)[C@@H](CCCNC(=N)N)NC(=O)[C@@H](CCCNC(=N)N)NC(=O)[C@@H](CCCNC(=N)N)NC(=O)[C@@H](CCCNC(=N)N)NC(=O)[C@@H](CCCNC(=N)N)NC(=O)[C@@H](CCCNC(=N)N)NC(=O)[C@@H](CCCNC(=N)N)NC(=O)[C@@H](CCCNC(=N)N)NC(=O)[C@H](N)CCCNC(=N)N)C(=O)N[C@@H](Cc1ccccc1)C(=O)N1CCC[C@H]1C(=O)O [MUC1/CQC] (H-[dR][dR][dR][dR][dR][dR][dR][dR][dR]CQCRRKNYGQLDIFP-OH; N-terminus and C-terminus assumed)
growth of carcinoma cell lines [1]: active in inhibiting growth of multiple carcinoma cell lines
effect on growth (MUC1-negative 293 cells): no apparent effect
cell cycle distribution (MCF-7 cells): arrest of growth in S phase
necrosis (MCF-7 cells): induction of necrosis
effect on growth [2]: no effect; also recorded: little effect
effect on cell cycle distribution ([2]; 3 d): no effect
